Test results: the NIST ThermoML archive (doi:10.1021/acs.jced.7b00363)
± gives the expanded uncertainty stated by the source.

Legend:
[1] = Surface laser light scattering (SLLS); for viscosity: Liquid
[2] = wn = mass fraction of the nth substance listed; details: Surface laser light scattering (SLLS); for viscosity: Liquid

Row | Compound | surface tension liquid-gas ([1]; 398.15 K) [mN/m] | viscosity ([1]; 398.15 K) [mPa·s] | surface tension liquid-gas ([1]; 423.15 K) [mN/m] | viscosity ([1]; 423.15 K) [mPa·s] | surface tension liquid-gas ([1]; 448.15 K) [mN/m] | viscosity ([1]; 448.15 K) [mPa·s] | surface tension liquid-gas ([1]; 473.15 K) [mN/m] | viscosity ([1]; 473.15 K) [mPa·s] | surface tension liquid-gas ([1]; 498.15 K) [mN/m] | viscosity ([1]; 498.15 K) [mPa·s] | surface tension liquid-gas ([1]; 523.15 K) [mN/m] | viscosity ([1]; 523.15 K) [mPa·s] | surface tension liquid-gas ([1]; 548.15 K) [mN/m] | viscosity ([1]; 548.15 K) [mPa·s] | surface tension liquid-gas ([1]; 573.15 K) [mN/m] | viscosity ([1]; 573.15 K) [mPa·s] | further results
1 | CCCCCCCCCCCC [dodecane] | 16.22 ± 0.14 | 0.4003 ± 0.012 | 14.33 ± 0.26 | 0.3223 ± 0.011 | 12.38 ± 0.24 | 0.2595 ± 0.01 | 10.67 ± 0.08 | 0.2156 ± 0.0094 | 8.95 ± 0.16 | 0.1821 ± 0.0092 | 7.25 ± 0.08 | 0.1532 ± 0.0089 | 5.64 ± 0.07 | 0.1277 ± 0.0087 | 4.14 ± 0.07 | 0.1051 ± 0.0086 | surface tension liquid-gas ([1]; 323.15 K): 21.64 ± 0.23 mN/m; viscosity ([1]; 323.15 K): 0.9225 ± 0.025 mPa·s; surface tension liquid-gas ([1]; 348.15 K): 19.91 ± 0.3 mN/m; viscosity ([1]; 348.15 K): 0.6763 ± 0.017 mPa·s; surface tension liquid-gas ([1]; 373.15 K): 18.19 ± 0.31 mN/m; viscosity ([1]; 373.15 K): 0.507 ± 0.013 mPa·s
2 | CCCCCCCCCCCCCCCCCCCCCCCCCCCC [octacosane] | 21.33 ± 0.69 | 1.814 ± 0.082 | 19.53 ± 0.52 | 1.361 ± 0.043 | 17.78 ± 0.31 | 1.025 ± 0.025 | 16.57 ± 0.48 | 0.8318 ± 0.02 | 15.38 ± 0.29 | 0.6847 ± 0.019 | 14.18 ± 0.26 | 0.5675 ± 0.017 | 12.86 ± 0.18 | 0.4753 ± 0.016 | 11.51 ± 0.18 | 0.3995 ± 0.012 | –
3 | CCCCCCCCCCCCCCCCCCCCCCCCCCCC [octacosane] + CCCCCCCCCCCC | – | – | – | – | – | – | – | – | – | – | – | – | – | – | – | – | surface tension liquid-gas ([2]; 373.15 K, w2 = 0.156): 21.71 ± 0.57 mN/m; viscosity ([2]; 373.15 K, w2 = 0.156): 1.944 ± 0.064 mPa·s; surface tension liquid-gas ([2]; 398.15 K, w2 = 0.156): 19.8 ± 0.5 mN/m; viscosity ([2]; 398.15 K, w2 = 0.156): 1.412 ± 0.043 mPa·s; surface tension liquid-gas ([2]; 423.15 K, w2 = 0.156): 18.5 ± 0.25 mN/m; viscosity ([2]; 423.15 K, w2 = 0.156): 1.089 ± 0.028 mPa·s; surface tension liquid-gas ([2]; 448.15 K, w2 = 0.155): 17.07 ± 0.24 mN/m; viscosity ([2]; 448.15 K, w2 = 0.155): 0.8604 ± 0.023 mPa·s; surface tension liquid-gas ([2]; 473.15 K, w2 = 0.155): 15.59 ± 0.21 mN/m; viscosity ([2]; 473.15 K, w2 = 0.155): 0.6912 ± 0.016 mPa·s; surface tension liquid-gas ([2]; 498.15 K, w2 = 0.154): 14.15 ± 0.19 mN/m; viscosity ([2]; 498.15 K, w2 = 0.154): 0.5671 ± 0.016 mPa·s; surface tension liquid-gas ([2]; 523.15 K, w2 = 0.152): 12.84 ± 0.23 mN/m; viscosity ([2]; 523.15 K, w2 = 0.152): 0.4787 ± 0.014 mPa·s; surface tension liquid-gas ([2]; 548.15 K, w2 = 0.15): 11.56 ± 0.16 mN/m; viscosity ([2]; 548.15 K, w2 = 0.15): 0.4075 ± 0.013 mPa·s; surface tension liquid-gas ([2]; 573.15 K, w2 = 0.148): 10.3 ± 0.19 mN/m; viscosity ([2]; 573.15 K, w2 = 0.148): 0.3445 ± 0.011 mPa·s
